# Patent US20250082760A1 (priority 2020, published 2025)
# Structures can show the parent of a compound that is named as a salt.
# Columns and labels:
# [1] = system: nitroglycerin-induced migraine mouse model; assay: nitroglycerin-induced migraine mouse model (hot plate, head scratching, body weight); assay type: in vivo, ICR mice; details: for hind feet licking time (hot plate) / total number of head scratching times: reference model group, day 5; for hind feet licking time (hot plate): 45 min after modeling, p<0.05
# Protocol: 48 ICR mice weigt 18-22 g, half male and half female; purchased from Qinglongshan Animal Breeding Farm, Jiangning District, Nanjing City, certificate: SCXK (Su) 2017-0001; rearing conditions: room temperature 18-20° C., same sex rearing in separate cages, 12 hours of light, regular ventilation, conventional full-price solid feed feeding, bedding changed every two days; 48 mice were randomly divided into 6 groups (blank control group, model group, positive drug group, low-dose group of test drug, medium-dose group of test drug, high-dose group of test drug), 8 animals (4♀4) in each group, marked No. 1-8 with picric acid respectively.
# Solvent: 0.5% CMC-Na aqueous solution; positive drug: flunarizine hydrochloride (sibelin) capsules (specification 5 mg), take the contents in a mortar, add 100 ml of 0.5% CMC-Na solution while grinding, placed in EP tubes for standby; Test drug (compound 5): dissolve into 5, 10, 20 mg/ml solutions with distilled water respectively, and placed in EP tubes for standby; Modeling drug (nitroglycerin): take 2 nitroglycerin tablets (specification 5 mg), crushed into powder, placed in EP tubes, added 500 μl of propylene glycol with a pipette and shaken well, standing still for 5 minutes, added 9.5 ml of normal saline, shaken well and standing still overnight, take the supernatant (containing nitroglycerin) 1 mg/ml) for use.
# Except for the first group (blank control group), animals in other groups were subcutaneously injected with 10 mg/kg (0.2 ml/20 g) of nitroglycerin back-up solution 1 h after each administration (modeling once every other day on the 1st, 3rd, and 5th days).
# The first group was the blank control group, which was given 0.5% CMC-Na 0.2 ml/20 g by gavage; the second group was the model group, which was given 0.5% CMC-Na by gavage; the third group was the positive drug group, which was given by gavage Flunarizine hydrochloride (sibilin) 1 mg/kg; the fourth group was the low-dose group of test drug, which was given 100 mg/kg of compound 5 by gavage; the fifth group was the medium-dose group of test drug, which was given 200 mg/kg of compound 5 by gavage; the sixth group was the high-dose group of test drug, which was given 400 mg/kg of compound 5 by gavage. Dosing every other day on days 1, 3, and 5.
# In behavioral studies, mice scratching their heads for more than 5 times or scratching their faces with forelimbs for more than 5 times were identified as migraine-related behaviors caused by modeling, with a record of scratching their heads once; in the hot plate method, mice lifted their hind limbs and licked their hind feet as the observation indicator, record the time immediately.
# righting reflex in mice = assay: mouse righting reflex test (sedative and hypnotic effects); assay type: in vivo, Kunming mice
# Protocol: Experimental animals, SPF Kunming mice, male, 20-30 g, Laboratory Animal Center of Lanzhou University (certificate number: SCXK (Gan) 2018-0002), reared in separate cages, temperature, 22±1° C., humidity, 50%, automatic in the light-controlled 12 h/12 h light-dark cycle (light-on time 8:00 h, light-off time 20:00 h, light intensity ≈100 lux) environment, free food and activities, adapted to the experimental environment for 5 days.
# (§1) Statistical analysis, the experimental data were analyzed by SPSS 19.0 statistical software, and all data were expressed as Means±SEM.
# reserpine-treated mice = assay: mouse sugar water preference test (reserpine depression model); assay type: in vivo, Kunming mice
# Protocol: Experimental drug, clomipramine (CLI), sigma company, batch number: C7291, 10 mg/ml (10% DMSO); reserpine (Res), sigma company, batch number: 83580, 1 mg/ml (10% DMSO);
# SPF adult male Kunming mice, 20-30 g, Laboratory Animal Center of Lanzhou University, animal certificate number: SCXK (Gan) 2018-0002, reared in separate cages, temperature 22±1° C., humidity […], 12 h/12 h light and dark cycle controlled by dynamic light (light-on time 8:000 h, light-off time 20:000 h, light intensity≈100 lux), animals could eat and move freely.
# as §1
# [2] = intraperitoneal, compound 5 56 mg/kg, Pro 25 mg/kg, A1P1 24 and 25 mg/kg, Dia 5 mg/kg, n = 7, listed as compound 5, hydrochloride
smiles,measurement,setting,value
"CC(C)c1cccc(C(C)C)c1OC(=O)CC1(CN(C)C)CCCCC1 [Compound 5, 2,6-diisopropylphenyl 2-(1-((dimethylamino)methyl)cyclohexyl)acetate hydrochloride]",alleviation of nitroglycerin-induced migraine in mice,"[1]; by gavage on days 1, 3, 5, compound 5 100, 200, 400 mg/kg",effectively alleviate
same,weight gain of mice,"[1]; mouse, in vivo",no significant effect
same,hind feet licking time (hot plate),[1]; high dose 400 mg/kg gavage,significant difference
same,total number of head scratching times,[1]; high dose 400 mg/kg gavage,significant difference (p<0.05)
same,total number of head scratching times,[1]; low dose 100 mg/kg gavage,extremely significant (p<0.01)
same,total number of head scratching times,[1]; medium dose 200 mg/kg gavage,extremely significant (p<0.01)
same,hind feet licking time (hot plate),[1]; middle dose 200 mg/kg gavage,significant difference
same,sedative effect,"righting reflex in mice; intraperitoneal 56 mg/kg, versus Pro and A1P1",better sedative effect
same,Observation of activity and other phenomena,"righting reflex in mice; intraperitoneal, compound 5 56 mg/kg, Pro 25 mg/kg, A1P1 24 and 25 mg/kg, Dia 5 mg/kg, n = 7, hydrochloride",Reduced activity
same,Disappearance time (latency of disappearance of the righting reflex),righting reflex in mice; [2],did not disappear
same,Observation of activity and other phenomena,righting reflex in mice; [2],significantly reduced
same,antidepressant effect (sugar water preference test),reserpine-treated mice; Res 6 mg/kg + compound 5 56 mg/kg i.p.,significant antidepressant effect
same,change of preference for sugar water compared with the Res+DMSO group,"reserpine-treated mice; after Res 6 mg/kg i.p., CLI 50, Pro 25, A1P1 24 and 25, compound 5 56 mg/kg i.p.",rose significantly
same,Sugar water preference (sugar water drinking amount/total drinking amount),"reserpine-treated mice; after Res 6 mg/kg i.p., CLI 50, Pro 25, A1P1 24 and 25, compound 5 56 mg/kg i.p., Means±SEM, Res + DMSO 0.642 ± 0.036, DMSO 0.901 ± 0.026",0.894 ± 0.028
